Source: BindingDB's records for patent US10167299 (Shanghai Institute of Material Medica, Chinese Academy of …, 2019)

Molecular target: C-C chemokine receptor type 5 (Homo sapiens, UniProt P51681)
Assay: Calcium Flux Inhibition Experiment
Protocol: 1. […] The medium in each well into which cells were innoculated was removed and 40 μl/well of freshly prepared dye was added. […] The dye was removed. […] FlexStation II was used for detection.

C-C chemokine receptor type 5, sequence (P51681 whole entry): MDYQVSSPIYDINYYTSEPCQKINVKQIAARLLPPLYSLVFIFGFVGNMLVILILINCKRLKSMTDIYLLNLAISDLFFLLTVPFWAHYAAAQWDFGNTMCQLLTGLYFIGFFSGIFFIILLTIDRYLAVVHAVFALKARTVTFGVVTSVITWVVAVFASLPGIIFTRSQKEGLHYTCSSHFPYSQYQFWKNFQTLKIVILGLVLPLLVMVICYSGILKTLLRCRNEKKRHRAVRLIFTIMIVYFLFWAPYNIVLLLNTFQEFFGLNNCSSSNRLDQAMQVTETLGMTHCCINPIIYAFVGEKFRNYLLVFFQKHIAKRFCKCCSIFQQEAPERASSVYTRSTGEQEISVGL

`CC(=O)N[C@@H](CCN1C2CCC1CC(n1c(C)nnc1C(C)C)C2)c1csc2ccccc12` (stereo partly specified) [US10167299, Example 28] gave an IC50 of 68 nM.
